# Read-outs that look alike come from different tables or passages of the source. Marks after values point to notes of the source that are not given here.
# Tests used:
# [1] = Stability constants reported in literature; type: binding; conditions: across the lanthanide series
# [2] = cited from earlier work
# [3] = cited from earlier work; remark: listed apart in the source
# [4] = I = 0.16 M NaCl, uncertainties 1σ; cited from earlier work
# [5] = Potentiometric titration, acid dissociation constants; type: physicochemical; conditions: aqueous 2.0 M (Na+/H+)ClO4 electrolyte solution
# Procedure: All potentiometric titrations were run using a Mettler Toledo T90 autotitrator equipped with an Orion Ross Semi-micro glass electrode with the junction stabilization solution changed to 5.0 M NaCl to prevent precipitation with perchlorate media. All titrations were performed under a hydrated nitrogen atmosphere. The forward titration measurements (acidic titrand, basic titrant) of H4octapa in nitrate electrolyte medium were performed as described previously due to the limited solubility of this ligand in a 2 M (Na^+/H^+)ClO4 medium. Acid dissociation constants of H4octapa in perchlorate electrolyte medium were also determined by titrating in reverse (basic titrand, acidic titrant) to alleviate the solubility concerns. Titrations of H4pypa-peg were performed in reduced-volume glass titration cups (10 mL nominal) due to the limited supply of this ligand. All potentiometric titrations were run in triplicate. The choice of using p[H^+] was explained in Heathman et al.[15], and the calibration of the p[H^+] scale utilized Gran analysis through titration of a strong acid with the base used in the potentiometric titrations[29]–[31]. Potentiometric titration data was modeled and analyzed using Hyperquad2013 to determine acid dissociation and metal complexation stability constants[32],[33].
# Changes in hydrogen ion concentration were monitored using a glass electrode for a solution of H4octapa as either NaOH or HClO4 were titrated into the solutions. […] The experimental potentiometric curve collected for a forward titration of H4octapa in (Na^+/H^+)NO3 is presented in Fig. 3A, alongside the distribution curves for the identified HnL species. Following those studies, the acid/base conditions were reversed and octapa^4− was titrated in 2.0 M (Na^+/H^+)ClO4 using HClO4 (SI Figure S7). The potentiometric curves are well respresented by five proton dissociation equilibria. The calculated equilibrium constants correspond with the protonation reactions for two aliphatic amines, two pyridine nitrogens, and one carboxylate group with the protonation sequence described by Eq. (2). The acid dissociation constants (pKa = − log10Ka) for H4octapa are reported in Table 1 alongside previously reported values in the literature.
# The experimental potentiometric titration curve and the distribution curves for the associated HnL species for H4pypa-peg are presented in Fig. 3B. […] For comparison, the protonation equilibria of H4edta were also studied in 2.0 M (Na^+/H^+)ClO4. The pKa values for H4edta are listed in Table 2 and collected potentiometric titration curves (forward and reverse) are presented in SI Figure S8. For H4pypa-peg coordination pocket the protonation of H9L^5+, H7L^3+, and H6L^2+ cannot be characterized using a glass electrode. The H6L^2+ species likely represents a protonated carboxylate group, while H5L^+ and H4L may describe the pyridinecarboxylate nitrogens. The equilibrium involving H3L^− likely describes the dissociation of the protonated pyridine nitrogen, while the two most basic species in this ligand (HL^3− and H2L^2−) are likely the bridging amines in the H4pypa-peg backbone. Equation (3) describes the protonation sequence for H4pypa-peg.3 H10-aL^+6-a⇆H9-aL^+5-a+H^+Ka=H^+·H9-aL^+5-a/H10-aL^+6-aa=1…9
# [6] = Spectrophotometric titration; type: binding; conditions: spectrophotometrically determined in 2.0 M (Na+/H+)ClO4, 20 °C
# Excerpt: Changes in the optical absorption characteristics of Nd^3+ were monitored using a Cary 6000i UV/Vis–NIR Spectrometer (Agilent) using 1 cm semimicro quartz cuvettes (Starna) in double-beam mode, where the ^4I9/2 → ^4G5/2, ^2G7/2 transitions[34] were monitored between 560 and 605 nm with a 0.075 nm interval and 1.0 nm spectral bandwidth. Changes in the optical absorption characteristics of ^243Am^3+ and ^248Cm^3+ were monitored using a Flame-S-VIS–NIR-ES spectrometer coupled to a DH-2000-BAL dual-mode light source (Ocean Optics) with a single 1 cm semimicro quartz cuvette (Starna). The light source and spectrometer were optically coupled to the CUV sample (Ocean Optics) holder using 2 m fiberoptics (200 μm) and the parameters for acquisition were 0.369 nm interval and 1000 scans averaged with an integration time/scan 1.08 ms (total acquisition time ~ 1 s). The complexation of Am^3+ with the ligands was monitored in the 495–525 nm spectral region, looking at the ^7F0′ → ^5L6′ transition[23],[35]. For Cm^3+, ligand complexation was monitored in the 365–410 nm spectral region, looking at the ^8S7/2 → ^2Ji (i = {15}, {13,9}, {11,17}) manifold transitions[24],[25],[36]. Changes in aqueous p[H^+] were monitored throughout each titration step using a Gran-calibrated Orion Ross Semi-micro glass electrode. Baseline correction was applied to all datasets and was typically a simple linear subtraction. However, in the case of the ^248Cm/H4pypa-peg spectra, the tail end of the ligand absorption overlapped the hypersensitive Cm peaks. In this case the background correction was applied using a 5th-order empirical polynomial. Finally, the spectroscopic data was analyzed using the HypSpec software package[33],[37]. Full details of the titrand and titrant solutions for each titration are included in the Supplemental Information.
# The coordination of Nd^3+ by H4octapa and H4pypa-peg was also studied using spectroscopic methods. Figures 5A, B show the collected spectrophotometric signatures for H4octapa and H4pypa-peg, respectively.4 M^3++L^4-⇆ML^-β101=ML^-/[M^3+]L^4- 5 M^3++H^++L^4-⇆MHLaqβ111=MHLaq/[M^3+L^4-H^+]
# Optical absorption features of ^4I9/2 → ^4G5/2, ^2G7/2 transitions for Nd^3+ are perturbed due to the introduction of increasing quantities of complexants, resulting in characteristic red-shifted changes. In Fig. 5A a broad absorption band with λmax = 577 nm is distinctly different to the optical absorption of free Nd^3+ metal in Fig. 5B. The differences can be attributed to the nitrate complexation of Nd^3+ as the spectrophotometric titration with H4octapa was performed in 2.0 M (Na^+/H^+)NO3. […] The HypSpec interpretation of the Nd/pypa-peg titration points to the presence of three absorbing species: Nd^3+, NdHL(aq), and NdL^−. The conditional stability constants obtained spectroscopically are listed in Table 3, showing good agreement with the stability constants determined using potentiometry. The complex stability constants for structurally similar APC ligands found in the literature are also presented (H4pypa[18] and H4py4pa[57]).
# 2. Spectrophotometric titration parameters
# Nd3+: The titrand solution consisting of 1.980 mL of 7.57 mM Nd(ClO4)3 at p[H+] = 1.61 was blended with 1.965 mL of titrant solution containing 7.62 mM Nd3+, 18.57 mM H4octapa, […]
# Am3+: The titrand solution consisting of 0.842 mL of 0.810 mM Am(ClO4)3 at p[H+] =1.66 was blended with 0.811 mL of titrant solution containing 0.815 mM Am3+, 8.95 mM H4octapa, at p[H+] ≈ 5.0 – 6.0.
# Nd3+: The titrand solution consisting of 0.801 mL of 9.82 mM Nd(ClO4)3 at p[H+] = 1.61 was blended with 1.176 mL of titrant solution containing 9.91 mM Nd3+ and 24.58 mM H4pypa-peg in with p[H+] ≈ 3.0 – 4.0.
# Am3+: The titrand solution consisting of 0.806 mL of 0.791 mM Am(ClO4)3 at p[H+] = 1.41 was blended with 0.787 mL of titrant solution containing 0.801 mM Am3+ and 15.09 mM H4pypa-peg at p[H+] ≈ 5 – 6.
# Cm3+: The titrand solution consist ing of 0.809 mL of 1.00 mM Cm(ClO4)3 at p[H+] = 1.34 was […]
# [7] = in-batch spectrophotometric competition at 25 °C, not evaluated at constant I = 0.16 M NaCl
# [8] = potentiometric titrations, I = 0.16 M NaCl, uncertainties 1σ
smiles,measurement,setting,value
O=C(O)CN(Cc1cccc(CN(CC(=O)O)Cc2cccc(C(=O)O)n2)n1)Cc1cccc(C(=O)O)n1 [H4pypa],cross-lanthanide stability increase for ML- complexes,[1],1000 fold
same,"logK111, La",[2]; [7],3.24 (5)*
same,"logβ101 (ML), La",[2]; [8],19.54 (2)
same,"logK111, Lu",[3]; [7],3.60 (6)*
same,"logβ101 (ML), Lu",[3]; [8],22.20 (2)
same,pKa H2L2-,[4],6.78 (1)
same,pKa H3L-,[4],3.69 (1)
same,pKa H4L(aq),[4],3.02 (1)
same,pKa H5L+,[4],2.23 (2)
same,pKa H6L2+,[4],2.06 (6)
same,pKa H7L3+,[4],1.70 (2)
same,pKa HL3-,[4],7.78 (1)
"O=C(O)CN(CCN(CC(=O)O)CC(=O)O)CC(=O)O [H4edta, ethylenediamine-N,N,N′,N′-tetraacetic acid]",pKa,"[5]; I = 2.0 M (Na+/H+)ClO4 (Table 2), read-out: pKa H2L2-",6.23
same,pKa,"[5]; I = 2.0 M (Na+/H+)ClO4 (Table 2), read-out: pKa H3L-",2.48
same,pKa,"[5]; I = 2.0 M (Na+/H+)ClO4 (Table 2), read-out: pKa H4L(aq)",2.08
same,pKa,"[5]; I = 2.0 M (Na+/H+)ClO4 (Table 2), read-out: pKa HL3-",8.71
same,pKa,"[5]; I = 2.0 M (Na+/H+)ClO4 at 20.0 °C, read-out: pKa H2L species",6.45
same,pKa,"[5]; I = 2.0 M (Na+/H+)ClO4 at 20.0 °C, read-out: pKa H3L species",2.49
same,pKa,"[5]; I = 2.0 M (Na+/H+)ClO4 at 20.0 °C, read-out: pKa H4L species",2.02
same,pKa,"[5]; I = 2.0 M (Na+/H+)ClO4 at 20.0 °C, read-out: pKa HL species",8.81
same,"logβ101 (ML), Nd",[6],14.66(1)

# — article PMC10587169, “Tuning aminopolycarboxylate chelators for efficient complexation of trivalent actinides” (Scientific Reports, 2023)
